# Tests used:
# Assay in all cases: relative viability (nuclei count vs DMSO), 5 days (fraction); higher = more cells survive
# EPLC-272H = system: EPLC-272H
# In short: (§1)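 Lung cancer cell lines in 1536-well plates got either a single drug or a fixed anchor-drug dose together with five library-drug doses (not always all listed) in √10 steps, by pin tool, on the day after seeding. Nuclei were counted after 5 days, and relative viability is the treated-to-vehicle ratio of nuclei counts. Values are medians of duplicate plates.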
# HARA = system: HARA
# In short: as §1
# NCI-H1915 = system: NCI-H1915
# In short: as §1
# ABC-1 = system: ABC-1
# In short: as §1
# NCI-H1355 = system: NCI-H1355
# In short: as §1
# COR-L23 = system: COR-L23
# In short: as §1
# PC-14 = system: PC-14
# In short: as §1
# UMC-11 = system: UMC-11
# In short: as §1
# LU99A = system: LU99A
# In short: as §1
# NCI-H1651 = system: NCI-H1651
# In short: as §1
# NCI-H358 = system: NCI-H358
# In short: as §1
# NCI-H2347 = system: NCI-H2347
# In short: as §1
# HCC-44 = system: HCC-44
# In short: as §1
# LC-2-ad = system: LC-2-ad
# In short: as §1
# HOP-62 = system: HOP-62
# In short: as §1
# HCC-15 = system: HCC-15
# In short: as §1
# NCI-H1993 = system: NCI-H1993
# In short: as §1
# NCI-H2023 = system: NCI-H2023
# In short: as §1
# NCI-H2085 = system: NCI-H2085
# In short: as §1
# SW 1573 = system: SW 1573
# In short: as §1
# NCI-H650 = system: NCI-H650
# In short: as §1
# NCI-H838 = system: NCI-H838
# In short: as §1
# NCI-H2126 = system: NCI-H2126
# In short: as §1
compound,measurement,setting,value
O=c1cc(-c2cccc3c2Sc2ccccc2S3)oc(N2CCOCC2)c1 + C[C@@H](Oc1cc(-c2cnn(C3CCNCC3)c2)cnc1N)c1c(Cl)ccc(F)c1Cl [Crizotinib] (partner 1 µM),relative viability,EPLC-272H; first compound 0.08 µM,0.786
same,relative viability,EPLC-272H; first compound 0.253 µM,0.891
same,relative viability,EPLC-272H; first compound 0.8 µM,1.19
same,relative viability,EPLC-272H; first compound 2.53 µM,0.963
same,relative viability,EPLC-272H; first compound 8 µM,1.08
same,relative viability,HARA; first compound 0.08 µM,0.971
same,relative viability,HARA; first compound 0.253 µM,1.12
same,relative viability,HARA; first compound 0.8 µM,1
same,relative viability,HARA; first compound 2.53 µM,1.05
same,relative viability,HARA; first compound 8 µM,1.28
same,relative viability,NCI-H1915; first compound 0.08 µM,1.02
same,relative viability,NCI-H1915; first compound 0.253 µM,0.987
same,relative viability,NCI-H1915; first compound 0.8 µM,1.02
same,relative viability,NCI-H1915; first compound 2.53 µM,0.905
same,relative viability,NCI-H1915; first compound 8 µM,0.847
same,relative viability,ABC-1; first compound 0.08 µM,1.27
same,relative viability,ABC-1; first compound 0.253 µM,1.24
same,relative viability,ABC-1; first compound 0.8 µM,1.05
same,relative viability,ABC-1; first compound 2.53 µM,1.31
same,relative viability,ABC-1; first compound 8 µM,1.49
same,relative viability,NCI-H1355; first compound 0.08 µM,1.08
same,relative viability,NCI-H1355; first compound 0.253 µM,1.16
same,relative viability,NCI-H1355; first compound 0.8 µM,1.04
same,relative viability,NCI-H1355; first compound 2.53 µM,1.06
same,relative viability,NCI-H1355; first compound 8 µM,0.98
same,relative viability,COR-L23; first compound 0.08 µM,0.744
same,relative viability,COR-L23; first compound 0.253 µM,0.876
same,relative viability,COR-L23; first compound 0.8 µM,0.792
same,relative viability,COR-L23; first compound 2.53 µM,0.737
same,relative viability,COR-L23; first compound 8 µM,0.616
same,relative viability,PC-14; first compound 0.08 µM,0.979
same,relative viability,PC-14; first compound 0.253 µM,1.13
same,relative viability,PC-14; first compound 0.8 µM,0.945
same,relative viability,PC-14; first compound 2.53 µM,0.899
same,relative viability,PC-14; first compound 8 µM,0.868
same,relative viability,UMC-11; first compound 0.08 µM,0.729
same,relative viability,UMC-11; first compound 0.253 µM,0.566
same,relative viability,UMC-11; first compound 0.8 µM,0.729
same,relative viability,UMC-11; first compound 2.53 µM,0.644
same,relative viability,UMC-11; first compound 8 µM,0.701
same,relative viability,LU99A; first compound 0.08 µM,0.552
same,relative viability,LU99A; first compound 0.253 µM,0.574
same,relative viability,LU99A; first compound 0.8 µM,0.932
same,relative viability,LU99A; first compound 2.53 µM,0.596
same,relative viability,LU99A; first compound 8 µM,0.701
same,relative viability,NCI-H1651; first compound 0.08 µM,0.916
same,relative viability,NCI-H1651; first compound 0.253 µM,0.889
same,relative viability,NCI-H1651; first compound 0.8 µM,0.916
same,relative viability,NCI-H1651; first compound 2.53 µM,0.882
same,relative viability,NCI-H1651; first compound 8 µM,0.903
same,relative viability,NCI-H358; first compound 0.08 µM,0.629
same,relative viability,NCI-H358; first compound 0.253 µM,0.634
same,relative viability,NCI-H358; first compound 0.8 µM,0.657
same,relative viability,NCI-H358; first compound 2.53 µM,0.466
same,relative viability,NCI-H358; first compound 8 µM,0.574
same,relative viability,NCI-H2347; first compound 0.08 µM,0.654
same,relative viability,NCI-H2347; first compound 0.253 µM,0.394
same,relative viability,NCI-H2347; first compound 0.8 µM,0.738
same,relative viability,NCI-H2347; first compound 2.53 µM,0.769
same,relative viability,NCI-H2347; first compound 8 µM,0.711
same,relative viability,HCC-44; first compound 0.08 µM,0.811
same,relative viability,HCC-44; first compound 0.253 µM,0.886
same,relative viability,HCC-44; first compound 0.8 µM,0.83
same,relative viability,HCC-44; first compound 2.53 µM,0.859
same,relative viability,HCC-44; first compound 8 µM,0.854
same,relative viability,LC-2-ad; first compound 0.08 µM,0.392
same,relative viability,LC-2-ad; first compound 0.253 µM,0.499
same,relative viability,LC-2-ad; first compound 0.8 µM,0.525
same,relative viability,LC-2-ad; first compound 2.53 µM,0.436
same,relative viability,LC-2-ad; first compound 8 µM,0.509
same,relative viability,HOP-62; first compound 0.08 µM,0.842
same,relative viability,HOP-62; first compound 0.253 µM,0.998
same,relative viability,HOP-62; first compound 0.8 µM,0.989
same,relative viability,HOP-62; first compound 2.53 µM,0.653
same,relative viability,HOP-62; first compound 8 µM,0.904
same,relative viability,HCC-15; first compound 0.08 µM,0.952
same,relative viability,HCC-15; first compound 0.253 µM,0.934
same,relative viability,HCC-15; first compound 0.8 µM,1.01
same,relative viability,HCC-15; first compound 2.53 µM,0.857
same,relative viability,HCC-15; first compound 8 µM,0.827
same,relative viability,NCI-H1993; first compound 0.08 µM,0.838
same,relative viability,NCI-H1993; first compound 0.253 µM,1.01
same,relative viability,NCI-H1993; first compound 0.8 µM,0.89
same,relative viability,NCI-H1993; first compound 2.53 µM,0.871
same,relative viability,NCI-H1993; first compound 8 µM,0.99
same,relative viability,NCI-H2023; first compound 0.08 µM,0.673
same,relative viability,NCI-H2023; first compound 0.253 µM,0.682
same,relative viability,NCI-H2023; first compound 0.8 µM,0.787
same,relative viability,NCI-H2023; first compound 2.53 µM,0.648
same,relative viability,NCI-H2023; first compound 8 µM,0.646
same,relative viability,NCI-H2085; first compound 0.08 µM,0.913
same,relative viability,NCI-H2085; first compound 0.253 µM,1.06
same,relative viability,NCI-H2085; first compound 0.8 µM,0.939
same,relative viability,NCI-H2085; first compound 2.53 µM,0.832
same,relative viability,NCI-H2085; first compound 8 µM,0.93
same,relative viability,SW 1573; first compound 0.08 µM,0.76
same,relative viability,SW 1573; first compound 0.253 µM,0.852
same,relative viability,SW 1573; first compound 0.8 µM,0.886
same,relative viability,SW 1573; first compound 2.53 µM,0.794
same,relative viability,SW 1573; first compound 8 µM,0.849
same,relative viability,NCI-H650; first compound 0.08 µM,0.702
same,relative viability,NCI-H650; first compound 0.253 µM,0.606
same,relative viability,NCI-H650; first compound 0.8 µM,0.74
same,relative viability,NCI-H650; first compound 2.53 µM,0.58
same,relative viability,NCI-H650; first compound 8 µM,0.694
same,relative viability,NCI-H838; first compound 0.08 µM,0.883
same,relative viability,NCI-H838; first compound 0.253 µM,0.988
same,relative viability,NCI-H838; first compound 0.8 µM,0.82
same,relative viability,NCI-H838; first compound 2.53 µM,0.794
same,relative viability,NCI-H838; first compound 8 µM,0.816
same,relative viability,NCI-H2126; first compound 0.08 µM,1.02
same,relative viability,NCI-H2126; first compound 0.253 µM,1.09
same,relative viability,NCI-H2126; first compound 0.8 µM,1.17
same,relative viability,NCI-H2126; first compound 2.53 µM,0.994
same,relative viability,NCI-H2126; first compound 8 µM,1.04

# Reference: the supplement of paper PMC10307832
